According to patent publication US9662318B2, “Bitopic muscarinic agonists and antagonists and methods of synthesis and use thereof” (BARRY UNIVERSITY, INC., priority 2012, dated 2017):
Like-named read-outs stand apart in the source and are kept apart here.

Columns and labels:
[1] = biological target: T1, M3 muscarinic receptor (Homo sapiens, UniProt P20309); experiment: Dissociation of [3H]NMS (full time course kinetics); format: binding; conditions: [^3H]NMS dissociation
T1 construct: host or cells: Chinese hamster ovary cells
Excerpt: (§1) To probe the ability of JB-D4 to allosterically modulate orthosteric ligand, its effect on the rate of orthosteric radioligand dissociation has been investigated. […] Eq. 1 was fitted to the data from kinetic experiments. Data are means±SD from 3 independent experiments performed in quadruplicates. Equations: y=(100-f2)*e^(-Koff1*X)+f2*e^(-Koff2*X) (Eq. 1) where y is the percentage of radioligand binding at time x of radioligand binding at time 0, koff1 and koff2 are rate dissociation constants and f2 is the percentage of sites with koff2 rate of dissociation. […]. 2)

[2] = biological target: T2, M4 muscarinic receptor (Homo sapiens, UniProt P08173); experiment: as above; format: binding; conditions: [^3H]NMS dissociation
T2 construct: host or cells: Chinese hamster ovary cells
T2 sequence (P08173 1-479): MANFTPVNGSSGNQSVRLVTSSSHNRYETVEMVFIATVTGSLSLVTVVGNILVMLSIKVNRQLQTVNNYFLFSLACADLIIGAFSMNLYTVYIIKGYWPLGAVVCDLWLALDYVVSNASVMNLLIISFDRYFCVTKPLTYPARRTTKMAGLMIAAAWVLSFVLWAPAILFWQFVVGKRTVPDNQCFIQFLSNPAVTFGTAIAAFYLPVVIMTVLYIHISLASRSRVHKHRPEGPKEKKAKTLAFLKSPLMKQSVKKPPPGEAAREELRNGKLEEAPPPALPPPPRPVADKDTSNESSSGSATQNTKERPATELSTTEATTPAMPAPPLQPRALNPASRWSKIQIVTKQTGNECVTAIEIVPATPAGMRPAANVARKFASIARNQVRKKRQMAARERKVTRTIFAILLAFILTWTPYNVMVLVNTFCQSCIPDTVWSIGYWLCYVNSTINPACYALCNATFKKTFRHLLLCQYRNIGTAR
Excerpt: as §1

[3] = biological target: T3, M5 muscarinic receptor (Homo sapiens, UniProt P08912); experiment: as above; format: binding; conditions: [^3H]NMS dissociation, +0.1 mM JB-D4, M5
T3 construct: host or cells: CHO (Chinese hamster ovary) cells, stably transfected
T3 sequence (P08912 1-532): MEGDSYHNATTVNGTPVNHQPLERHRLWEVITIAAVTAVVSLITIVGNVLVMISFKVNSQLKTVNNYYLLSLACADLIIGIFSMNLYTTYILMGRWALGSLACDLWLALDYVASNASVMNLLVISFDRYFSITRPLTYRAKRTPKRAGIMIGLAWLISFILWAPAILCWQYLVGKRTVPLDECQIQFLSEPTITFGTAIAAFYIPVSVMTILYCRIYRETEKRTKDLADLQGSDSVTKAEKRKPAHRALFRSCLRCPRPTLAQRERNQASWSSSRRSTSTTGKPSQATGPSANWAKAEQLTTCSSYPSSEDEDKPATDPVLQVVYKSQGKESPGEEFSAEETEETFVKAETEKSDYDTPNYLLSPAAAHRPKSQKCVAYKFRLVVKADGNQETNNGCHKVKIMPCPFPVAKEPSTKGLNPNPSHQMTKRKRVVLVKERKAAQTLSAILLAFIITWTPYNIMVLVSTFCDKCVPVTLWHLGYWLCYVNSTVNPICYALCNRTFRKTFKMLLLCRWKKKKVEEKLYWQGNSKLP
Excerpt: as §1

[4] = biological target: T4, M1 muscarinic receptor (Homo sapiens, UniProt P11229); experiment: Competition with [3H]NMS (equilibrium binding, CHO membranes); conditions: for IC50: competition with [^3H]NMS
T4 sequence (P11229 1-460): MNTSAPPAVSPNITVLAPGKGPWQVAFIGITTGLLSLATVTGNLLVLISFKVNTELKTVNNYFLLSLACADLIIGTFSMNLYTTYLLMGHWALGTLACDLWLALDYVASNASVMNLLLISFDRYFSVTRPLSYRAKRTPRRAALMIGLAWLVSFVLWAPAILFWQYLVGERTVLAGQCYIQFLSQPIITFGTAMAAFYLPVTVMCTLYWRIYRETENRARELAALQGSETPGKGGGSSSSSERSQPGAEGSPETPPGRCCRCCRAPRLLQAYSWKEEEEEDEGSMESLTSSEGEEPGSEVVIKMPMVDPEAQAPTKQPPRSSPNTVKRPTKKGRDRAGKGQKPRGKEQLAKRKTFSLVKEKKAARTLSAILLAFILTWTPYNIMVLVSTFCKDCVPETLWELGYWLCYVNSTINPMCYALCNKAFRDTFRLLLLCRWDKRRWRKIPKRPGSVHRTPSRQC
Description: (§2) All radioligand binding experiments were optimized and carried out as described earlier. Briefly, membranes were incubated in 96-well plates at 30° C. in the incubation medium described. […] Dissociation was initiated by addition of atropine to final concentration of 5 Tested ligands in final concentration of 100 μM were added concurrently with atropine. Incubations were terminated by filtration through Whatman GF/C glass fiber filters (Whatman) using a Brandel cell harvester (Brandel, Gaithersburg, Md., USA). Filters were dried in vacuum for 1 h while heated at 80° C. and then solid scintillator Meltilex A was melted on filters (105° C., 90 s) using a hot plate. The filters were cooled and counted in Wallac Microbeta scintillation counter.
(§3) Inhibition constant KI was calculated as: […]

[5] = biological target: T1, M3 muscarinic receptor; experiment: as above; conditions: for IC50: competition with [^3H]NMS
Description: as §2, §3

[6] = biological target: T2, M4 muscarinic receptor; experiment: as above; conditions: for IC50: competition with [^3H]NMS
Description: as §2, §3

[7] = biological target: T2, M4 muscarinic receptor; experiment: biochemical; format: binding; conditions: competition with [^3H]QNB
[8] = biological target: T2, M4 muscarinic receptor; experiment: Accumulation of inositol phosphates in CHO cells; format: cell-based; conditions: M4; ligand 0.1 mM; no carbachol
Description: Chinese hamster ovary cells stably transfected with the genes of human variants of muscarinic receptors were purchased from Missouri S&T cDNA Resource Center (Rolla, Mo., USA). […] Cells were grown to confluency in 75 cm^2 flasks in Dulbecco's modified Eagle's medium supplemented with 10% fetal bovine serum and 2 million of cells were subcultured to 100 mm Petri dishes. Medium was supplemented with 5 mM butyrate for the last 24 hours of cultivation to increase receptor expression.
Inositolphosphates formation was determined in cells pre-labeled overnight by 0.5 μM [^3H]myo-inositol in 0.3 mL of DMEM (3 μCi/ml) at 37° C. […] Incubation was stopped by removal of incubation buffer and addition 0.2 mL 20% trichloracetic acid (TCA). After 1 h incubation at 4° C., 100 μL, of TCA extracts were taken for measurement. Rest of the TCA was removed, and TCA precipitates were washed with 200 μL TCA and dissolved in 200 μL of 1 M NaOH. After 1 h incubation at 4° C., 100 μL, of NaOH lysates were taken for measurement. Radioactivity in TCA extracts and NaOH lysates were determined by liquid scintillation counting. The rate of inositolphosphates accumulation was calculated as a percentage of the soluble (released) inositolphosphates from the total incorporated radioactivity (sum of radioactivity in NaOH lysates and TCA extracts).
EC50 values are expressed as negative logarithms and EMAX values as folds over basal, Table 7.

[9] = M4, average of 3, read-out: avg IC50
[10] = M4, experiment 1, read-out: IC50—1
[11] = M4, experiment 2, read-out: IC50—2
[12] = M4, experiment 3, read-out: IC50—3

T1 sequence (P20309 whole entry): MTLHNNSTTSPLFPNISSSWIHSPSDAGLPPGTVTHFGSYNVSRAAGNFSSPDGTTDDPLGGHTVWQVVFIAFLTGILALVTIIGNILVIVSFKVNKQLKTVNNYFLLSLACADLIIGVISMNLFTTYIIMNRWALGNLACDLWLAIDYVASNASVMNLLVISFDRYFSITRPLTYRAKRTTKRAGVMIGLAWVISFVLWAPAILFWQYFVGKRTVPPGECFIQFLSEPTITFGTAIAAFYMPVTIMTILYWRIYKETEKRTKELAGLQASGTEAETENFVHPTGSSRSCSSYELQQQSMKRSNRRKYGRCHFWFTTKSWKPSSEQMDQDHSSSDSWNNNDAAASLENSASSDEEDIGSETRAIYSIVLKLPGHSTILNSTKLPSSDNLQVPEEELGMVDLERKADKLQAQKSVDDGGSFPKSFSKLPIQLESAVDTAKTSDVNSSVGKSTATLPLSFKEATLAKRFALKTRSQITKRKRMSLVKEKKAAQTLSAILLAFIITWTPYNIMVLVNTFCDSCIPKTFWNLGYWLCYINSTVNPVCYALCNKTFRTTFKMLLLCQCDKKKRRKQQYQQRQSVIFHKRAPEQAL

CCCCOc1ccc(C(=O)OCC[N+]2(C)CCCCC2)cc1.[I-] [JB-D4, 2-(N-piperidineethyl) p-butoxybenzoate N-methyl iodide]
koff1 ([1]; +0.1 mM JB-D4, M3): 0.41 ± 0.03 h⁻¹
koff1 ([1]; +1 mM JB-D4, M3): 0.085 ± 0.008 h⁻¹
koff1 ([2]; +0.1 mM JB-D4, M4): 0.38 ± 0.03 h⁻¹
koff1 ([2]; +1 mM JB-D4, M4): 0.076 ± 0.006 h⁻¹
koff1 [3]: 0.18 ± 0.01 h⁻¹
IC50 ([4]; M1, average of 3, read-out: avg IC50): 14.4 µM
IC50 ([4]; M1, experiment 1, read-out: IC50—1): 14.3 µM
IC50 ([4]; M1, experiment 2, read-out: IC50—2): 13.8 µM
IC50 ([4]; M1, experiment 3, read-out: IC50—3): 15.1 µM
Ki ([4]; read-out: KI): 2880 nM
IC50 ([5]; M3, average of 3, read-out: avg IC50): 16.9 µM
IC50 ([5]; M3, experiment 1, read-out: IC50—1): 16.6 µM
IC50 ([5]; M3, experiment 2, read-out: IC50—2): 17.2 µM
IC50 ([5]; M3, experiment 3, read-out: IC50—3): 16.9 µM
Ki ([5]; read-out: KI): 3.16 µM
IC50 [6, 9]: 41.8 µM
IC50 [6, 10]: 43.4 µM
IC50 [6, 11]: 42 µM
IC50 [6, 12]: 40 µM
Ki ([6]; read-out: KI): 7.54 µM
Ki ([7]; M4): 3.08 µM
IC50 [7, 9]: 27.1 µM
IC50 [7, 10]: 20.6 µM
IC50 [7, 11]: 32.6 µM
IC50 [7, 12]: 28.1 µM
Effect of ligands on basal activity (accumulation of inositol phosphates as percent of accumulation in the absence of the ligand) [8]: 98 ± 4%
